Experimental data published in article PMC11747885, “Potent inhibitors of the human RNA ligase Rlig1 highlights its role in RNA integrity maintenance under oxidative cellular stress” (Chemical Science, 2025).
Several values for one entry are separate records, joined by “and”; a condition that tells them apart may be missing. Identical values can stand only once. Entries after “also recorded” stand apart in the source; their conditions may differ. Like-named read-outs stand apart in the source and are kept apart here.

Tests used:
Rlig1-AMP = target: T1, Rlig1-AMP (Homo sapiens, UniProt Q8N999); assay: Radioactive RNA ligation assay (hit validation, 10 µM test and IC50 determination); format: biochemical; conditions: for Product formation [%] of RNA ligation, Rlig1: three replicates
T1 construct: made in house; host or cells: E. coli BL21 (DE3), pET15b-Rlig1
T1 sequence (Q8N999 whole entry): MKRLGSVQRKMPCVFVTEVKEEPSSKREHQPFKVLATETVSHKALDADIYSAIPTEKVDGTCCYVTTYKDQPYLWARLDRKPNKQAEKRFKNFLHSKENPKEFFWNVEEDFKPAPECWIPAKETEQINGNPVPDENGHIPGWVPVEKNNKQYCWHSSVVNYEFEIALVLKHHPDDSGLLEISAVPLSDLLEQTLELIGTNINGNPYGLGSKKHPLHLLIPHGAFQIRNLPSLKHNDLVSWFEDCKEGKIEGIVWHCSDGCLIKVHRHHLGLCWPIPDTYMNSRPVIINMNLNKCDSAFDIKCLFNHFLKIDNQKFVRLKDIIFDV

[1] = Cell viability assay of HEK293 cells treated with inhibitors and menadione; format: cell-based, human; conditions: human, HEK293 cells, w/o Menadione; for viability at 7.5 µM: 7.5 µM compound; for viability at 15 µM: 15 µM compound; for viability at 30 µM: 30 µM compound; for viability at 60 µM: 60 µM compound
HEK293 cells = assay: as above; format: cell-based, human; conditions: for Mean Diff, (Predicted (LS) mean diff,) w/o menadione - w menadione: 2 way ANOVA, Šídák's multiple comparisons test, normalised viability
[2] = log(inhibitor) vs. response, variable slope (four parameters)
[3] = 20240508 plate 012, DMSO Ko no Mendione = 100
[4] = 20240508 plate 013, DMSO Ko no Mendione = 100
[5] = 20240515 plate 014, DMSO Ko no Mendione = 100
[6] = 20240515 plate 015, DMSO Ko no Mendione = 100

## Nc1nccc(Nc2ccc(NC(=O)c3ccc(Nc4ncnc5ccccc45)cc3)cc2)n1 [Compound 47]
Rlig1-AMP; 10 μM compound, 500 nM Rlig1-AMP, 20 min 37 °C
  inhibition of Rlig1-AMP ligation (urea-PAGE): Ligation was inhibited; also recorded: inhibited Rlig1-AMP
Rlig1-AMP; Figure 5B, Sigmoidal, 4PL
  Bottom (best-fit value), Rlig1: 1.324
  HillSlope (best-fit value), Rlig1: -6.786
  Span (best-fit value), Rlig1: 68.62
Rlig1-AMP; Figure 5B, Sigmoidal, 4PL, X is log(concentration)
  Top (best-fit value), Rlig1: 69.95
Rlig1-AMP; Figure 5B, Sigmoidal, 4PL, log of µM
  LogIC50 (best-fit value), Rlig1: 0.6576
Rlig1-AMP; Figure 5B, Sigmoidal, 4PL, read-out: IC50 (best-fit value), Rlig1
  IC50: 4.55 µM
Rlig1-AMP; four-parameter fit
  HillSlope (best-fit value): 6.82
  Span (best-fit value): 92.85
Rlig1-AMP; four-parameter fit, n = 3, read-out: IC50 (best-fit value)
  IC50: 4.54 µM
Rlig1-AMP; log (47 [µM]) 0.273001
  Product formation [%] of RNA ligation, Rlig1: 3.068% and 1.075% and 8.355%
Rlig1-AMP; log (47 [µM]) 0.574031
  Product formation [%] of RNA ligation, Rlig1: 27.5278% and 13.8043% and 34.7122%
Rlig1-AMP; log (47 [µM]) 0.875061
  Product formation [%] of RNA ligation, Rlig1: 98.3243% and 92.1834% and 95.246%
Rlig1-AMP; log (47 [µM]) 1.17609
  Product formation [%] of RNA ligation, Rlig1: 100% and 96.1318% and 97.0084%
Rlig1-AMP; log (47 [µM]) 1.47712
  Product formation [%] of RNA ligation, Rlig1: 100% and 98.2475% and 98.511%
Rlig1-AMP; log (47 [µM]) -0.0280287
  Product formation [%] of RNA ligation, Rlig1: 6.829% and 0.6969% and 9.287%
Rlig1-AMP; log (47 [µM]) -0.329059
  Product formation [%] of RNA ligation, Rlig1: 4.933% and 0% and 8.486%
Rlig1-AMP; log (47 [µM]) -0.630089
  Product formation [%] of RNA ligation, Rlig1: 7.315% and 6.312% and 9.428%
Rlig1-AMP; log Compound [µM] 1.47712, replicates I-III, read-out: percentage inhibition (dose response curve for IC50)
  inhibition at 30 µM: 100%
Rlig1-AMP; log Compound [µM] -0.630089, replicates I-III, read-out: percentage inhibition (dose response curve for IC50)
  inhibition at 0.234375 µM: 7.32%
Rlig1-AMP; log of µM, four-parameter fit
  LogIC50 (best-fit value): 0.6569
Rlig1-AMP; [2]
  Bottom (best-fit value): 5.434
  Top (best-fit value): 98.28
Rlig1-AMP; radioactive ligation assay, 500 nM Rlig1-AMP, 20 min 37 °C, n = 3, read-out: IC50
  IC50: 4.54 µM
[1]; [3]
  viability at 7.5 µM: 101%
  viability at 15 µM: 99.1%
  viability at 30 µM: 83.9%
  viability at 60 µM: 74.2%
[1]; [4]
  viability at 7.5 µM: 97.7%
  viability at 15 µM: 99.5%
  viability at 30 µM: 85.9%
  viability at 60 µM: 78.2%
[1]; [5]
  viability at 7.5 µM: 86.8%
  viability at 15 µM: 88.1%
  viability at 30 µM: 80.3%
  viability at 60 µM: 71.3%
[1]; [6]
  viability at 7.5 µM: 90.7%
  viability at 15 µM: 86.8%
  viability at 30 µM: 77.7%
  viability at 60 µM: 70.9%
HEK293 cells; 7.5 µM compound
  Mean Diff, (Predicted (LS) mean diff,) w/o menadione - w menadione: 27.05
HEK293 cells; 7.5 µM compound, w Menadione (40µM), 20240508 plate 012
  Cell viability raw signal, technical replicates: 13447 and 15406 and 23888 and 24895
HEK293 cells; 7.5 µM compound, w Menadione (40µM), 20240508 plate 013
  Cell viability raw signal, technical replicates: 16840 and 14275 and 23542 and 21544
HEK293 cells; 7.5 µM compound, w Menadione (40µM), 20240515 plate 014
  Cell viability raw signal, technical replicates: 21755 and 24259 and 24363 and 21863
HEK293 cells; 7.5 µM compound, w Menadione (40µM), 20240515 plate 015
  Cell viability raw signal, technical replicates: 23813 and 26835 and 27301 and 27718
HEK293 cells; 7.5 µM compound, w/o Menadione, 20240508 plate 012
  Cell viability raw signal, technical replicates: 495890 and 394280 and 400970 and 404470
HEK293 cells; 7.5 µM compound, w/o Menadione, 20240508 plate 013
  Cell viability raw signal, technical replicates: 392490 and 381070 and 376820 and 393330
HEK293 cells; 7.5 µM compound, w/o Menadione, 20240515 plate 014
  Cell viability raw signal, technical replicates: 358610 and 355380 and 351680 and 351260
HEK293 cells; 7.5 µM compound, w/o Menadione, 20240515 plate 015
  Cell viability raw signal, technical replicates: 363930 and 358300 and 404440 and 357100
HEK293 cells; 15 µM compound
  Mean Diff, (Predicted (LS) mean diff,) w/o menadione - w menadione: 26.73
